Converted amounts (≈) assume the structure as drawn.
Legend:
axillary malodor [1] = assay: Example 4: axillary malodor evaluation by trained odor judges, 1.0% BCA vs vehicle; assay type: in vivo, human; details: for 24 hours drop from untreated Control / Malodor Evaluation (score): 1.0% BCA; for Malodor Evaluation (score): 24 h after application, scale 0 to 10
Protocol: (§1) BCA was dissolved in a mixture of 60% propylene glycol and 40% water at a final concentration of 1.0%. The pH of the solution was adjusted to about 6.25 with 10 N NaOH. Thirty-nine female panelists applied 0.5 ml of this test solution to either the right or left axilla and 0.5 ml of a comparative solution of 60% propylene glycol and 40% water to the other. The side of application of the test or comparative solutions was assigned in a random fashion. Twenty-four hours after application, each side of the panelists' axilla was judged for odor by a panel of trained odor judges on a scale of 0 (no odor) to 10 (very intense, disagreeable odor). This procedure was performed on four consecutive days. […] Analysis of the clinical results is summarized below:
Significance was measured in a two-tailed T-test al 95% confidence level and n=number of subjects.

[2] = In vivo test for axillary irritation of 1.0% BCA; set-up: species or system human; details: 1.0% in 60% propylene glycol/40% water, pH about 6.25, 1.0 ml, four consecutive days, seven panelists
Protocol: In vivo experiments were conducted to determine if 1.0% solutions of BCA were irritating to axillary skin. BCA was dissolved in a mixture of 60% propylene glycol and 40% water at a final concentration of 1.0%. The pH of the solution was adjusted to about 6.25 with 10 N NaOH. Seven panelists applied 1.0 ml of this test solution to a cotton applicator swab and applied the solution to either the right or left axilla. 1.0 ml of a control solution of 60% propylene glycol and 40% water was similarly applied to the other axilla. The side of application of the test or control solutions was assigned in a random fashion. This procedure was performed on four consecutive days. Axilla were monitored by a nurse for signs of skin irritation.

β-lyase = assay: Sniff vial test: malodor formation from precursors by whole Staphylococcus haemolyticus cells (beta-lyase inhibition); assay type: cell-based; details: 31-0.625 mM, phosphate buffer pH 6.8, 30 minutes at 35° C.; judged by smelling
Protocol: BCA was tested for its ability to prevent Staphylococcus haemolyticus from metabolizing sweat to form malodor. Log-phase cultures of Staphylococcus haemolyticus were incubated with various concentrations of BCA (31-0.625 mM) in phosphate buffer (pH 6.8) for 30 minutes at 35° C. The cell/BCA mixture was then added to a "sniff vial" containing malodor precursors and incubated at 35° C. for an additional 30 minutes. Malodor compounds were then extracted from the mixture with chloroform and malodor was judged by spotting 10 μl of chloroform extracts onto bibulous paper and smelling. […] In contrast, the β-lyase inhibitor aminooxyacetic acid (AOA) consistently prevents malodor in the above assay at concentrations of 5.0 mM.

[3] = system: Staphylococcus haemolyticus; assay: Minimum inhibitory concentration (MIC) in axillary bacteria, Staphylococcus strain; assay type: cell-based
Protocol: (§2) In vitro experiments were conducted in order to determine the ability of several bacterial cell wall synthesis inhibitors to inhibit the growth of axillary bacteria. The minimum inhibitory concentrations (MIC) of β-chloro-D-alanine (BCA), and D-cycloserine were determined in Staphylococcus (Staphylococcus haemolyticus) and Coryneform strains of axillary bacteria as follows: Frozen stock cultures were thawed out and 50 μl of Staphylococcus haemolyticus or 100 μl of Coryneform bacteria were inoculated into 5.0 ml of nutrient media. Bacteria were incubated at 35° C. overnight to produce cultures in log phase growth. A series of tubes was set up into which serial dilutions of BCA or triclosan in nutrient media were added in the range of 0.1 to 0.0001 wt/v % (where 1 g/100 ml=1 wt/v %). The tubes were inoculated with 50 μl of log phase Staphylococcus haemolyticus or Coryneform cultures and incubated at 35° C. overnight. […] The minimum bactericidal concentration (MBC) was determined by adding 50 μl from each clear solution of the MIC experiment into 5.0 ml of fresh nutrient media and incubating overnight at 37° C. […] The MIC of BCA was thus determined to be 0.1 wt/v % and 0.001 wt/v % in Staphylococcus haemolyticus and Coryneforms, respectively. The MIC of D-cycloserine was thus determined to be 0.01 wt/v % and 0.005 wt/v % in Staphylococcus haemolyticus and Coryneforms, respectively. By comparison, the MIC of the common antibacterial deodorant compound triclosan is 0.01 wt/v % and 0.1 wt/v % in Staphylococcus haemolyticus and Coryneforms, respectively.

Coryneform bacteria = assay: Minimum inhibitory concentration (MIC) in axillary bacteria, Coryneform strain; assay type: cell-based, Coryneform strains of axillary bacteria
Protocol: as §2

axillary malodor [4] = assay: Example 6: axillary malodor evaluation by odor judges, 1.0% β-chloro-D-alanine vs 1.0% β-chloro-L-alanine; assay type: in vivo, human; set-up: key to 24 Hour Drop from Control / A-B (drop), D-BCA minus L-BCA: drop in odor score on 0 (no odor) to 10 (very intense) scale; details: for 24 Hour Drop from Control: 1.0% in 60% propylene glycol/40% water
Protocol: as §1
A test product containing 1.0% β-chloro-D-alanine (BCA)[…] in 60% propylene glycol/40% water was compared to a comparative product containing 1.0% β-chloro-L-alanine in 60% propylene glycol/40% water by application to 50 female test subjects according to the procedure of Example 4.

N[C@H](CCl)C(=O)O [BCA, β-chloro-D-alanine]
Axillary skin irritation (axillary malodor [1]; 1.0% in 60% propylene glycol/40% water, 0.5 ml, four consecutive days, thirty-nine female panelists): No incidences of irritation were reported | Deodorant efficacy versus 60% propylene glycol/40% water comparative product (axillary malodor [1]; 95% confidence level, measurements 3, 4 and composite): significantly more effective | A-B (drop of comparative product minus drop of BCA product) (axillary malodor [1]; composite): -0.29 | 24 hours drop from untreated Control (axillary malodor [1]; composite): 0.96 | Malodor Evaluation (score) (axillary malodor [1]; measurement 1): 4.18 | Malodor Evaluation (score) (axillary malodor [1]; measurement 2): 3.6 | Malodor Evaluation (score) (axillary malodor [1]; measurement 3): 3.3 | Malodor Evaluation (score) (axillary malodor [1]; measurement 4): 3.49 | A-B (drop of comparative product minus drop of BCA product) (axillary malodor [1]; post-application measurement 1): 0.11 | 24 hours drop from untreated Control (axillary malodor [1]; post-application measurement 1): 0.41 | A-B (drop of comparative product minus drop of BCA product) (axillary malodor [1]; post-application measurement 2): -0.21 | 24 hours drop from untreated Control (axillary malodor [1]; post-application measurement 2): 0.99 | A-B (drop of comparative product minus drop of BCA product) (axillary malodor [1]; post-application measurement 3): -0.50 | 24 hours drop from untreated Control (axillary malodor [1]; post-application measurement 3): 1.29 | A-B (drop of comparative product minus drop of BCA product) (axillary malodor [1]; post-application measurement 4): -0.62 | 24 hours drop from untreated Control (axillary malodor [1]; post-application measurement 4): 1.10 | Axillary skin irritation [2]: No incidences of irritation were reported | Inhibition of malodor formed by staphylococcal metabolism of precursors (β-lyase): did not inhibit malodor | MIC [3]: 1000 µg/mL (≈ 8.09 mM) | MIC (Coryneform bacteria): 10 µg/mL (≈ 0.0809 mM) | A-B (drop), D-BCA minus L-BCA (axillary malodor [4]; composite): 0.436 | 24 Hour Drop from Control (axillary malodor [4]; composite): 1.519 | Control of malodor, BCA test product versus 1.0% β-chloro-L-alanine comparative product (axillary malodor [4]; measurements 2-4 and composite, 95% level of confidence, not the first measurement): significantly more effective | A-B (drop), D-BCA minus L-BCA (axillary malodor [4]; post-application measurement 1): 0.166 | 24 Hour Drop from Control (axillary malodor [4]; post-application measurement 1): 1.079 | A-B (drop), D-BCA minus L-BCA (axillary malodor [4]; post-application measurement 2): 0.452 | 24 Hour Drop from Control (axillary malodor [4]; post-application measurement 2): 1.492 | A-B (drop), D-BCA minus L-BCA (axillary malodor [4]; post-application measurement 3): 0.665 | 24 Hour Drop from Control (axillary malodor [4]; post-application measurement 3): 1.678 | A-B (drop), D-BCA minus L-BCA (axillary malodor [4]; post-application measurement 4): 0.529 | 24 Hour Drop from Control (axillary malodor [4]; post-application measurement 4): 1.862

Reference: patent US6060043A, “Deodorant composition containing D-amino acid” (The Gillette Company, priority 1998, dated 2000)
